Assays:
Assay type in all cases: cell-based
Conditions in all cases: compounds at 50 nM and 500 nM
[1] = target: T1, WEE1 (Homo sapiens, UniProt P30291+Q96SW2); test: Western blot degradation of WEE1 in hPBMCs (24 h)
T1 construct: The supernatant was aspirated as the extracted total cell protein; endogenous in cells; host or cells: human peripheral blood mononuclear cells (hPBMCs)
How it was run: (§1)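 Thawed human PBMCs, 1×10^6 cells/mL; cpd 50 nM or 500 nM, 24 h; RIPA lysis, BCA, SDS-PAGE, NC transfer, immunoblot. Readout: grayscale/internal control → % remaining; degradation = 1 − remaining.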

[2] = target: T2, IKZF1 (Homo sapiens, UniProt Q13422+Q96SW2); test: Western blot degradation of IKZF1 in hPBMCs (24 h)
T2 construct: The supernatant was aspirated as the extracted total cell protein; endogenous in cells; host or cells: human peripheral blood mononuclear cells (hPBMCs)
How it was run: as §1

[3] = target: T3, IKZF2 (Homo sapiens, UniProt Q96SW2+Q9UKS7); test: Western blot degradation of IKZF2 in hPBMCs (24 h)
T3 construct: The supernatant was aspirated as the extracted total cell protein; endogenous in cells; host or cells: human peripheral blood mononuclear cells (hPBMCs)
How it was run: as §1

[4] = target: T4, IKZF3 (Homo sapiens, UniProt Q96SW2+Q9UKT9); test: Western blot degradation of IKZF3 in hPBMCs (24 h)
T4 construct: The supernatant was aspirated as the extracted total cell protein; endogenous in cells; host or cells: human peripheral blood mononuclear cells (hPBMCs)
How it was run: as §1

[5] = target: T5, CK1α (Homo sapiens, UniProt P48729+Q96SW2); test: Western blot degradation of CK1α in hPBMCs (24 h)
T5 construct: The supernatant was aspirated as the extracted total cell protein; endogenous in cells; host or cells: human peripheral blood mononuclear cells (hPBMCs)
How it was run: as §1

[6] = target: T6, GSPT1 (Homo sapiens, UniProt P15170+Q96SW2); test: Western blot degradation of GSPT1 in hPBMCs (24 h)
T6 construct: The supernatant was aspirated as the extracted total cell protein; endogenous in cells; host or cells: human peripheral blood mononuclear cells (hPBMCs)
How it was run: as §1

T3 sequence (Q9UKS7 whole entry): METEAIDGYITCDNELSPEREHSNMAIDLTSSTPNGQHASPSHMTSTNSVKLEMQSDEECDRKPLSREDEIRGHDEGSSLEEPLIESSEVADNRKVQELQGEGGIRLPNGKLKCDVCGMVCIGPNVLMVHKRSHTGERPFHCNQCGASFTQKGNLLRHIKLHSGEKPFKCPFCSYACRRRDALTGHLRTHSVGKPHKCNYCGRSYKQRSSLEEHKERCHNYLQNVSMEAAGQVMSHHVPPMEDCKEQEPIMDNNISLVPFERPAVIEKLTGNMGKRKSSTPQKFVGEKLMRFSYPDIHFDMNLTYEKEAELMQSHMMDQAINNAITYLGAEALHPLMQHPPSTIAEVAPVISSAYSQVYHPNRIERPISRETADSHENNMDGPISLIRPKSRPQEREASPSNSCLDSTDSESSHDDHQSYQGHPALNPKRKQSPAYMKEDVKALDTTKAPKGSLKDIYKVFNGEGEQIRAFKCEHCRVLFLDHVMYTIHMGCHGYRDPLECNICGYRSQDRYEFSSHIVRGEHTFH
T3 sequence (Q96SW2 whole entry): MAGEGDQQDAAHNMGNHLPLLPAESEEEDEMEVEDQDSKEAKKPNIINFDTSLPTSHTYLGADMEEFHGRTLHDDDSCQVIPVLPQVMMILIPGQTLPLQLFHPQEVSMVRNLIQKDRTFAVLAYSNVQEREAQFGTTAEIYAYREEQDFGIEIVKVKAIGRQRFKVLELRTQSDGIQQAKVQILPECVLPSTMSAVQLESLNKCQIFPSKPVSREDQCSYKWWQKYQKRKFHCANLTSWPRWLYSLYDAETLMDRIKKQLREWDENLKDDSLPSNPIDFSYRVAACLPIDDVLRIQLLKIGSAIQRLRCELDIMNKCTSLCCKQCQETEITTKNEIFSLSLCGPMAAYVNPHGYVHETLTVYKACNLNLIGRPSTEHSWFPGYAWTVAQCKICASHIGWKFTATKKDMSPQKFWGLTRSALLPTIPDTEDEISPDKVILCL
T3 sequence (Q16531 whole entry partner): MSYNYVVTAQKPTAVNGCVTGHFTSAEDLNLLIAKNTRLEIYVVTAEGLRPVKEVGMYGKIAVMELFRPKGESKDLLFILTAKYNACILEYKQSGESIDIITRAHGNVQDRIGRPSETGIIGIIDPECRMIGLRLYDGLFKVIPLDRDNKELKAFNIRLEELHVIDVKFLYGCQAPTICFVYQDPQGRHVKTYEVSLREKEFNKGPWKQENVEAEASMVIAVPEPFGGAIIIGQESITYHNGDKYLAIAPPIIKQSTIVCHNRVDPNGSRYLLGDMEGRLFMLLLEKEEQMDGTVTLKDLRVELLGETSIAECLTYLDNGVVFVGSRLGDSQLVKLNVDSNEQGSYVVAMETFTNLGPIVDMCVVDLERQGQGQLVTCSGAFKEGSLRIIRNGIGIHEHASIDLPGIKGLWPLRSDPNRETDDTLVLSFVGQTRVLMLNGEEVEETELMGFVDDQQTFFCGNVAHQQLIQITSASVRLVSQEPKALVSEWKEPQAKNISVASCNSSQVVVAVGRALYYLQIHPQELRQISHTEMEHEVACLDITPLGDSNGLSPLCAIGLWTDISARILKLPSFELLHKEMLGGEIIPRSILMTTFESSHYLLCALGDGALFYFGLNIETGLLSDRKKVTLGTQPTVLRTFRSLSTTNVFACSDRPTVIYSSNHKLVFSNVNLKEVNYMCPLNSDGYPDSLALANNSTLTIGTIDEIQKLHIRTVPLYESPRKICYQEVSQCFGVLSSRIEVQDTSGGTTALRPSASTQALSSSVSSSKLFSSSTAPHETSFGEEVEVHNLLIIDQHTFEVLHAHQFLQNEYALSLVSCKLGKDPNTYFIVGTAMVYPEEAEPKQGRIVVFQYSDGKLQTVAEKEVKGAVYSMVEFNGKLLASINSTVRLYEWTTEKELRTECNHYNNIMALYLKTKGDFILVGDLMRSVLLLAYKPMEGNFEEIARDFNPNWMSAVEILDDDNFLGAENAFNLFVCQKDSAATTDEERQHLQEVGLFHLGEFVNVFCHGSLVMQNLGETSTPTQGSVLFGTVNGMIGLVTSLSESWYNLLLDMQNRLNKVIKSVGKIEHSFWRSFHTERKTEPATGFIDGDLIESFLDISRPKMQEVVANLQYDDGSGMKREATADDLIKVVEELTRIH
T6 sequence (P15170 whole entry): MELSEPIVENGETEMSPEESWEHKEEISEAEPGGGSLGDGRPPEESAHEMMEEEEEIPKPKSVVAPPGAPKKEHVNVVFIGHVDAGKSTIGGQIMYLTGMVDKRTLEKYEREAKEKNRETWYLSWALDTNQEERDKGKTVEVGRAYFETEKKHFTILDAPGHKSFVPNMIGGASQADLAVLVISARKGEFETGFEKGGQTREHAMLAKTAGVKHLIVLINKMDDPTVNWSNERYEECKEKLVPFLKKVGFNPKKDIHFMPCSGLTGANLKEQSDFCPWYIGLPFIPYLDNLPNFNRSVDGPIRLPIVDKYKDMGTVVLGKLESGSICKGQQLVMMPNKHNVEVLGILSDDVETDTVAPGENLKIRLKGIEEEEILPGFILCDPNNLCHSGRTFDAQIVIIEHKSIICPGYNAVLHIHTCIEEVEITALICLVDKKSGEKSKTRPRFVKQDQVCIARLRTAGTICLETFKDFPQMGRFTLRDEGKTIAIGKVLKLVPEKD
T6 sequence (Q96SW2 whole entry): as the sequence (Q96SW2 whole entry) above
T6 sequence (Q16531 whole entry partner): as the sequence (Q16531 whole entry partner) above
T2 sequence (Q13422 whole entry): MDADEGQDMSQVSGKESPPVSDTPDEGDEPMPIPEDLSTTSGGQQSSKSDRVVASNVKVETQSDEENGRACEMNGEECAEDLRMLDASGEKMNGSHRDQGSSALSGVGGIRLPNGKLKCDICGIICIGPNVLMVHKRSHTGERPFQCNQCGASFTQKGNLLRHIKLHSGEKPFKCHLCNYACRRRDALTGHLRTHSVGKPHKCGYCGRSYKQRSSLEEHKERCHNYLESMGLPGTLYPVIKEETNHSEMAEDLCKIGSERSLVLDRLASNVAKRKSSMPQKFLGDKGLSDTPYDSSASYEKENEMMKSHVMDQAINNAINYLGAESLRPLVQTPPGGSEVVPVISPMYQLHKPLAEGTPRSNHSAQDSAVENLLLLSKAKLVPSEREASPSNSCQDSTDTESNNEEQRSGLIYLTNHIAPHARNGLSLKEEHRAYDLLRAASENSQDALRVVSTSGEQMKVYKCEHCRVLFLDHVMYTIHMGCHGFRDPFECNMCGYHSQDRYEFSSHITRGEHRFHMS
T2 sequence (Q96SW2 whole entry): as the sequence (Q96SW2 whole entry) above
T2 sequence (Q16531 whole entry partner): as the sequence (Q16531 whole entry partner) above
T1 sequence (P30291 whole entry): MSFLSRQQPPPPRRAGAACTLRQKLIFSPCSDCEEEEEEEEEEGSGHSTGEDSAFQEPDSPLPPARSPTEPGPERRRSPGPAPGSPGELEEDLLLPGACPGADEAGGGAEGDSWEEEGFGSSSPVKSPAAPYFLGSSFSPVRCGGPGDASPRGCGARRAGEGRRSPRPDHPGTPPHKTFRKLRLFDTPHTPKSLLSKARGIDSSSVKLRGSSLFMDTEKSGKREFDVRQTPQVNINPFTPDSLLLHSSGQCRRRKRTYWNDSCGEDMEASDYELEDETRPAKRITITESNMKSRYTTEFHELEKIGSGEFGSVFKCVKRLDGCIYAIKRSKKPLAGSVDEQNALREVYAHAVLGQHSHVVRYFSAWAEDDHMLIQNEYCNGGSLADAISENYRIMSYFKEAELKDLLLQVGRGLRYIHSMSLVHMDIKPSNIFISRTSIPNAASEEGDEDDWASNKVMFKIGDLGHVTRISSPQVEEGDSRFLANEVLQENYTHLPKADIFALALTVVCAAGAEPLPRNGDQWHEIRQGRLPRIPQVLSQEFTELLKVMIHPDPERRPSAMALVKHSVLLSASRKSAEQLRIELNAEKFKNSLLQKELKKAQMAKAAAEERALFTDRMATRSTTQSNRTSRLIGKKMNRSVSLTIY
T1 sequence (Q96SW2 whole entry): as the sequence (Q96SW2 whole entry) above
T1 sequence (Q16531 whole entry partner): as the sequence (Q16531 whole entry partner) above
T4 sequence (Q9UKT9 whole entry): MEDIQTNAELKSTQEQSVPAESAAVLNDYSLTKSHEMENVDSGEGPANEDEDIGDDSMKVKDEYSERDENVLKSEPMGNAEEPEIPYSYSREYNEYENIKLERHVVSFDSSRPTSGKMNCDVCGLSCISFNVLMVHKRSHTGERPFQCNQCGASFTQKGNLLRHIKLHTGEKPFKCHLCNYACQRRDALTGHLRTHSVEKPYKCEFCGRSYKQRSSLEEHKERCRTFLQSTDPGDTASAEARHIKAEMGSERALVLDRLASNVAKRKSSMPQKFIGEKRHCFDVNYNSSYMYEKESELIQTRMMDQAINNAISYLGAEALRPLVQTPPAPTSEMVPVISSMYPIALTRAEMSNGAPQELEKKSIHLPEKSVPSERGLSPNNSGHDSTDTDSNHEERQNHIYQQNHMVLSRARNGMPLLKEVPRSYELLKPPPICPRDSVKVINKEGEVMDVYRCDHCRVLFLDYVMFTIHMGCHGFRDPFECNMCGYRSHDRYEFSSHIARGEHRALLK
T4 sequence (Q96SW2 whole entry): as the sequence (Q96SW2 whole entry) above
T4 sequence (Q16531 whole entry partner): as the sequence (Q16531 whole entry partner) above

| SMILES | WEE1 substrate protein remaining % [1] | IKZF1 substrate protein remaining % [2] | IKZF2 substrate protein remaining % [3] | IKZF3 substrate protein remaining % [4] | CK1α substrate protein remaining % [5] | GSPT1 substrate protein remaining % [6] |
| --- | --- | --- | --- | --- | --- | --- |
| O=C1CCN(N2Cc3cc(CN4CCC(c5noc6ccccc56)CC4)ccc3C2=O)C(=O)N1 [GT-07642, 1-(5-((4-(benzo[d]isoxazol-3-yl)piperidin-1-yl)methyl)-1-oxoisoindolin-2-yl)dihydropyrimidine-2,4(1H,3H)-dione] | B (80%< substrate protein remaining % ≤100%) | B (80%< substrate protein remaining % ≤100%) | B (80%< substrate protein remaining % ≤100%) | B (80%< substrate protein remaining % ≤100%) | B (80%< substrate protein remaining % ≤100%) | A (0% ≤ substrate protein remaining % ≤80%) |
| O=C1CCN(N2C(=O)c3ccc(CN4CC=C(c5n[nH]c6cc(F)ccc56)CC4)cc3C2=O)C(=O)N1 [GT-07643, 2-(2,4-dioxotetrahydropyrimidin-1(2H)-yl)-5-((4-(6-fluoro-1H-indazol-3-yl)-3,6-dihydropyridin-1(2H)-yl)methyl)isoindoline-1,3-dione] | B (80%< substrate protein remaining % ≤100%) | B (80%< substrate protein remaining % ≤100%) | B (80%< substrate protein remaining % ≤100%) | B (80%< substrate protein remaining % ≤100%) | B (80%< substrate protein remaining % ≤100%) | A (0% ≤ substrate protein remaining % ≤80%) |
| O=C1CCN(N2Cc3cc(CN4CCC(c5cccc6cnccc56)CC4)ccc3C2=O)C(=O)N1 [GT-07644, 1-(5-((4-(isoquinolin-5-yl)piperidin-1-yl)methyl)-1-oxoisoindolin-2-yl)dihydropyrimidine-2,4(1H,3H)-dione] | B (80%< substrate protein remaining % ≤100%) | B (80%< substrate protein remaining % ≤100%) | B (80%< substrate protein remaining % ≤100%) | B (80%< substrate protein remaining % ≤100%) | B (80%< substrate protein remaining % ≤100%) | A (0% ≤ substrate protein remaining % ≤80%) |
| O=C1CCN(N2Cc3cc(CN4CCC(c5ccnc6cc(F)ccc56)CC4)ccc3C2=O)C(=O)N1 [GT-07645, 1-(5-((4-(7-fluoroquinolin-4-yl)piperidin-1-yl)methyl)-1-oxoisoindolin-2-yl)dihydropyrimidine-2,4(1H,3H)-dione] | B (80%< substrate protein remaining % ≤100%) | A (0% ≤ substrate protein remaining % ≤80%) | B (80%< substrate protein remaining % ≤100%) | B (80%< substrate protein remaining % ≤100%) | B (80%< substrate protein remaining % ≤100%) | A (0% ≤ substrate protein remaining % ≤80%) |
| O=C1CCN(N2C(=O)c3ccc(CN4CCC(N5CCCc6cc(F)ccc65)CC4)cc3C2=O)C(=O)N1 [GT-07681, 2-(2,4-dioxotetrahydropyrimidin-1(2H)-yl)-5-((4-(6-fluoro-3,4-dihydroquinolin-1(2H)-yl)piperidin-1-yl)methyl)isoindoline-1,3-dione] | B (80%< substrate protein remaining % ≤100%) | A (0% ≤ substrate protein remaining % ≤80%) | B (80%< substrate protein remaining % ≤100%) | B (80%< substrate protein remaining % ≤100%) | B (80%< substrate protein remaining % ≤100%) | A (0% ≤ substrate protein remaining % ≤80%) |
| O=C1CCN(N2C(=O)c3ccc(CN4CCC(N5CCOc6cc(F)ccc65)CC4)cc3C2=O)C(=O)N1 [GT-07682, 2-(2,4-dioxotetrahydropyrimidin-1(2H)-yl)-5-((4-(7-fluoro-2,3-dihydro-4H-benzo[b][1,4]oxazin-4-yl)piperidin-1-yl)methyl)isoindoline-1,3-dione] | B (80%< substrate protein remaining % ≤100%) | B (80%< substrate protein remaining % ≤100%) | B (80%< substrate protein remaining % ≤100%) | B (80%< substrate protein remaining % ≤100%) | B (80%< substrate protein remaining % ≤100%) | A (0% ≤ substrate protein remaining % ≤80%) |
| O=C1CCN(N2C(=O)c3ccc(CN4CCC(N5C(=O)COc6cc(F)ccc65)CC4)cc3C2=O)C(=O)N1 [GT-07683, 2-(2,4-dioxotetrahydropyrimidin-1(2H)-yl)-5-((4-(7-fluoro-3-oxo-2,3-dihydro-4H-benzo[b][1,4]oxazin-4-yl)piperidin-1-yl)methyl)isoindoline-1,3-dione] | B (80%< substrate protein remaining % ≤100%) | B (80%< substrate protein remaining % ≤100%) | B (80%< substrate protein remaining % ≤100%) | B (80%< substrate protein remaining % ≤100%) | B (80%< substrate protein remaining % ≤100%) | A (0% ≤ substrate protein remaining % ≤80%) |
| O=C1CCN(N2C(=O)c3ccc(CN4CCC(C5CCOc6cc(F)ccc65)CC4)cc3C2=O)C(=O)N1 (stereo not drawn) [GT-07684, 2-(2,4-dioxotetrahydropyrimidin-1(2H)-yl)-5-((4-(7-fluorochroman-4-yl)piperidin-1-yl)methyl)isoindoline-1,3-dione] | B (80%< substrate protein remaining % ≤100%) | B (80%< substrate protein remaining % ≤100%) | B (80%< substrate protein remaining % ≤100%) | B (80%< substrate protein remaining % ≤100%) | B (80%< substrate protein remaining % ≤100%) | A (0% ≤ substrate protein remaining % ≤80%) |
| O=C1CCN(N2C(=O)c3ccc(CN4CCC(=C5CCOc6cc(F)ccc65)CC4)cc3C2=O)C(=O)N1 [GT-07685, 2-(2,4-dioxotetrahydropyrimidin-1(2H)-yl)-5-((4-(7-fluorochroman-4-ylidene)piperidin-1-yl)methyl)isoindoline-1,3-dione] | B (80%< substrate protein remaining % ≤100%) | B (80%< substrate protein remaining % ≤100%) | B (80%< substrate protein remaining % ≤100%) | B (80%< substrate protein remaining % ≤100%) | B (80%< substrate protein remaining % ≤100%) | A (0% ≤ substrate protein remaining % ≤80%) |
| O=C1CCN(N2C(=O)c3ccc(CN4CCC(c5cccc6c(F)cccc56)CC4)cc3C2=O)C(=O)N1 [GT-07686, 2-(2,4-dioxotetrahydropyrimidin-1(2H)-yl)-5-((4-(5-fluoronaphthalen-1-yl)piperidin-1-yl)methyl)isoindoline-1,3-dione] | B (80%< substrate protein remaining % ≤100%) | B (80%< substrate protein remaining % ≤100%) | B (80%< substrate protein remaining % ≤100%) | B (80%< substrate protein remaining % ≤100%) | B (80%< substrate protein remaining % ≤100%) | A (0% ≤ substrate protein remaining % ≤80%) |
| O=C1CCN(N2C(=O)c3ccc(CN4CC=C(c5cccc6c(F)cccc56)CC4)cc3C2=O)C(=O)N1 [GT-07687, 2-(2,4-dioxotetrahydropyrimidin-1(2H)-yl)-5-((4-(5-fluoronaphthalen-1-yl)-3,6-dihydropyridin-1(2H)-yl)methyl)isoindoline-1,3-dione] | B (80%< substrate protein remaining % ≤100%) | B (80%< substrate protein remaining % ≤100%) | B (80%< substrate protein remaining % ≤100%) | B (80%< substrate protein remaining % ≤100%) | B (80%< substrate protein remaining % ≤100%) | A (0% ≤ substrate protein remaining % ≤80%) |
| O=C1CCN(N2C(=O)c3ccc(CN4CCC(c5cccc6cnccc56)CC4)cc3C2=O)C(=O)N1 [GT-07688, 2-(2,4-dioxotetrahydropyrimidin-1(2H)-yl)-5-((4-(isoquinolin-5-yl)piperidin-1-yl)methyl)isoindoline-1,3-dione] | B (80%< substrate protein remaining % ≤100%) | B (80%< substrate protein remaining % ≤100%) | B (80%< substrate protein remaining % ≤100%) | B (80%< substrate protein remaining % ≤100%) | B (80%< substrate protein remaining % ≤100%) | A (0% ≤ substrate protein remaining % ≤80%) |

Reference: patent US20260356819A1, “OXOISOINDOLINYL-SUBSTITUTED […] DERIVATIVE AND USE THEREOF” (GLUETACS THERAPEUTICS (SHANGHAI) CO., LTD., priority 2023, published 2026)
